{"source": "patent US11053204B2", "about": "“Pyrimidinyloxy benzene derivatives as herbicides” (FMC Corporation, priority 2015, dated 2021)", "assay_type_in_all_cases": "in vivo", "key": {"[1]": {"tested_on": "galium (catchweed bedstraw, Galium aparine)", "assay": "Test C preemergence, plant response rating"}, "[2]": {"tested_on": "johnsongrass (Sorghum halepense)", "assay": "Test C preemergence, plant response rating"}, "[3]": {"tested_on": "barnyardgrass (Echinochloa crus-galli)", "assay": "Test C preemergence, plant response rating", "details": "Preemergence"}, "[4]": {"tested_on": "pigweed, palmer (palmer pigweed, Amaranthus palmeri)", "assay": "Test C preemergence, plant response rating"}, "kochia (Kochia scoparia)": {"tested_on": "kochia (Kochia scoparia)", "assay": "Test C preemergence, plant response rating"}, "[5]": {"tested_on": "nightshade (eastern black nightshade, Solanum ptycanthum)", "assay": "Test C preemergence, plant response rating"}, "[6]": {"tested_on": "windgrass (Apera spica-venti)", "assay": "Test C preemergence, plant response rating"}, "[7]": {"tested_on": "Canada thistle (Cirsium arvense)", "assay": "Test C postemergence, plant response rating", "details": "for Canada Thistle plant response rating: scale 0 to 100 (0 no effect, 100 complete control)", "method_in_brief": "(§1)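 Both timings shared one formulation, a non-phytotoxic solvent mixture with surfactant, and a greenhouse period of 13 to 15 d. Preemergence used seeded loam/sand or silt loam soil, postemergence used 2 to 18 cm plants; visual ratings ran from 0 (no effect) to 100 (complete control).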"}, "[8]": {"tested_on": "buckwheat, wild (wild buckwheat, Polygonum convolvulus)", "assay": "Test C postemergence, plant response rating", "details": "for Buckwheat, Wild plant response rating: scale 0 to 100 (0 no effect, 100 complete control)", "method_in_brief": "as §1"}, "[9]": {"tested_on": "field poppy (Papaver rhoeas)", "assay": "Test C postemergence, plant response rating", "details": "for Field Poppy plant response rating: scale 0 to 100 (0 no effect, 100 complete control)", "method_in_brief": "as §1"}, "[10]": {"tested_on": "field violet (Viola arvensis)", "assay": "Test C postemergence, plant response rating", "details": "for Field Violet plant response rating: scale 0 to 100 (0 no effect, 100 complete control)", "method_in_brief": "as §1"}, "[11]": {"tested_on": "geranium, cutleaf (cutleaf geranium, Geranium dissectum)", "assay": "Test C postemergence, plant response rating", "details": "for Geranium, Cutleaf plant response rating: scale 0 to 100 (0 no effect, 100 complete control)", "method_in_brief": "as §1"}, "[12]": {"tested_on": "johnsongrass (Sorghum halepense)", "assay": "Test C postemergence, plant response rating", "details": "for Johnsongrass plant response rating: scale 0 to 100 (0 no effect, 100 complete control)", "method_in_brief": "as §1"}, "[13]": {"tested_on": "nightshade (eastern black nightshade, Solanum ptycanthum)", "assay": "Test C postemergence, plant response rating", "details": "for Nightshade plant response rating: scale 0 to 100 (0 no effect, 100 complete control)", "method_in_brief": "as §1"}, "[14]": {"tested_on": "pigweed, palmer (palmer pigweed, Amaranthus palmeri)", "assay": "Test C postemergence, plant response rating", "details": "for Pigweed, Palmer plant response rating: scale 0 to 100 (0 no effect, 100 complete control)", "method_in_brief": "as §1"}, "[15]": {"tested_on": "speedwell (bird's-eye speedwell, Veronica persica)", "assay": "Test C postemergence, plant response rating", "details": "for Speedwell plant response rating: scale 0 to 100 (0 no effect, 100 complete control)", "method_in_brief": "as §1"}, "[16]": {"tested_on": "surinam grass (Brachiaria decumbens)", "assay": "Test C postemergence, plant response rating", "method_in_brief": "as §1"}, "[17]": {"tested_on": "wild mustard (Sinapis arvensis)", "assay": "Test C postemergence, plant response rating", "method_in_brief": "as §1"}, "[18]": {"tested_on": "wild poinsettia (Euphorbia heterophylla)", "assay": "Test C postemergence, plant response rating", "details": "for Poinsettia, Wild plant response rating: scale 0 to 100 (0 no effect, 100 complete control)", "method_in_brief": "as §1"}, "[19]": {"tested_on": "windgrass (Apera spica-venti)", "assay": "Test C postemergence, plant response rating", "method_in_brief": "as §1"}, "[20]": {"details": "125 g ai/ha, scale 0 to 100 (0 no effect, 100 complete control)"}}, "data": [{"smiles": "FC(F)(F)CCCc1c(Br)cccc1Oc1ncc(Cl)cn1", "note": "[Compound 89]", "values": [{"measurement": "Plant response rating, Galium", "setting": "[1]; 31 g ai/ha, scale 0 to 100", "result": 0}, {"measurement": "Plant response rating, Galium", "setting": "[1]; 62 g ai/ha, scale 0 to 100", "result": 0}, {"measurement": "Plant response rating, Galium", "setting": "[1]; 125 g ai/ha, scale of 0 to 100", "result": 0}, {"measurement": "Plant response rating, Johnsongrass", "setting": "[2]; 31 g ai/ha, scale 0 to 100", "result": 40}, {"measurement": "Plant response rating, Johnsongrass", "setting": "[2]; 62 g ai/ha, scale 0 to 100", "result": 30}, {"measurement": "Plant response rating, Johnsongrass", "setting": "[2]; 125 g ai/ha, scale of 0 to 100", "result": 60}, {"measurement": "Plant response rating, Barnyardgrass", "setting": "[3]; 125 g ai/ha, scale of 0 to 100", "result": 100}, {"measurement": "Plant response rating, Barnyardgrass", "setting": "[3]; 16 g ai/ha, scale 0 to 100", "result": 5}, {"measurement": "Plant response rating, Barnyardgrass", "setting": "[3]; 31 g ai/ha, scale 0 to 100", "result": 35}, {"measurement": "Plant response rating, Barnyardgrass", "setting": "[3]; 62 g ai/ha, scale 0 to 100", "result": 90}, {"measurement": "Plant response rating, Pigweed, Palmer", "setting": "[4]; 31 g ai/ha, scale 0 to 100", "result": 70}, {"measurement": "Plant response rating, Pigweed, Palmer", "setting": "[4]; 62 g ai/ha, scale 0 to 100", "result": 90}, {"measurement": "Plant response rating, Pigweed, Palmer", "setting": "[4]; 125 g ai/ha, scale of 0 to 100", "result": 98}, {"measurement": "Plant response rating, Kochia", "setting": "kochia (Kochia scoparia); 31 g ai/ha, scale 0 to 100", "result": 60}, {"measurement": "Plant response rating, Kochia", "setting": "kochia (Kochia scoparia); 62 g ai/ha, scale 0 to 100", "result": 85}, {"measurement": "Plant response rating, Kochia", "setting": "kochia (Kochia scoparia); 125 g ai/ha, scale of 0 to 100", "result": 90}, {"measurement": "Plant response rating, Nightshade", "setting": "[5]; 31 g ai/ha, scale 0 to 100", "result": 75}, {"measurement": "Plant response rating, Nightshade", "setting": "[5]; 62 g ai/ha, scale 0 to 100", "result": 65}, {"measurement": "Plant response rating, Nightshade", "setting": "[5]; 125 g ai/ha, scale of 0 to 100", "result": 85}, {"measurement": "Plant response rating, Windgrass", "setting": "[6]; 31 g ai/ha, scale 0 to 100", "result": 50}, {"measurement": "Plant response rating, Windgrass", "setting": "[6]; 62 g ai/ha, scale 0 to 100", "result": 65}, {"measurement": "Plant response rating, Windgrass", "setting": "[6]; 125 g ai/ha, scale of 0 to 100", "result": 100}, {"measurement": "Plant response rating, Canada Thistle", "setting": "[7]; 16 g ai/ha, scale of 0 to 100", "result": 80}, {"measurement": "Plant response rating, Canada Thistle", "setting": "[7]; 31 g ai/ha, scale 0 to 100", "result": 80}, {"measurement": "Canada Thistle plant response rating", "setting": "[7]; 62 g ai/ha", "result": 85}, {"measurement": "Canada Thistle plant response rating", "setting": "[7]; 125 g ai/ha", "result": 85}, {"measurement": "Plant response rating, Buckwheat, Wild", "setting": "[8]; 16 g ai/ha, scale of 0 to 100", "result": 70}, {"measurement": "Plant response rating, Buckwheat, Wild", "setting": "[8]; 31 g ai/ha, scale 0 to 100", "result": 75}, {"measurement": "Buckwheat, Wild plant response rating", "setting": "[8]; 62 g ai/ha", "result": 75}, {"measurement": "Buckwheat, Wild plant response rating", "setting": "[8]; 125 g ai/ha", "result": 85}, {"measurement": "Plant response rating, Field Poppy", "setting": "[9]; 16 g ai/ha, scale of 0 to 100", "result": 90}, {"measurement": "Plant response rating, Field Poppy", "setting": "[9]; 31 g ai/ha, scale 0 to 100", "result": 95}, {"measurement": "Field Poppy plant response rating", "setting": "[9]; 62 g ai/ha", "result": 100}, {"measurement": "Field Poppy plant response rating", "setting": "[9]; 125 g ai/ha", "result": 100}, {"measurement": "Plant response rating, Field Violet", "setting": "[10]; 16 g ai/ha, scale of 0 to 100", "result": 100}, {"measurement": "Plant response rating, Field Violet", "setting": "[10]; 31 g ai/ha, scale 0 to 100", "result": 100}, {"measurement": "Field Violet plant response rating", "setting": "[10]; 62 g ai/ha", "result": 100}, {"measurement": "Field Violet plant response rating", "setting": "[10]; 125 g ai/ha", "result": 100}, {"measurement": "Plant response rating, Geranium, Cutleaf", "setting": "[11]; 16 g ai/ha, scale of 0 to 100", "result": 35}, {"measurement": "Plant response rating, Geranium, Cutleaf", "setting": "[11]; 31 g ai/ha, scale 0 to 100", "result": 35}, {"measurement": "Geranium, Cutleaf plant response rating", "setting": "[11]; 62 g ai/ha", "result": 50}, {"measurement": "Geranium, Cutleaf plant response rating", "setting": "[11]; 125 g ai/ha", "result": 55}, {"measurement": "Plant response rating, Johnsongrass", "setting": "[12]; 16 g ai/ha, scale of 0 to 100", "result": 5}, {"measurement": "Plant response rating, Johnsongrass", "setting": "[12]; 31 g ai/ha, scale 0 to 100", "result": 10}, {"measurement": "Johnsongrass plant response rating", "setting": "[12]; 62 g ai/ha", "result": 10}, {"measurement": "Johnsongrass plant response rating", "setting": "[12]; 125 g ai/ha", "result": 85}, {"measurement": "Plant response rating, Nightshade", "setting": "[13]; 16 g ai/ha, scale of 0 to 100", "result": 75}, {"measurement": "Plant response rating, Nightshade", "setting": "[13]; 31 g ai/ha, scale 0 to 100", "result": 90}, {"measurement": "Nightshade plant response rating", "setting": "[13]; 62 g ai/ha", "result": 95}, {"measurement": "Nightshade plant response rating", "setting": "[13]; 125 g ai/ha", "result": 95}, {"measurement": "Plant response rating, Pigweed, Palmer", "setting": "[14]; 16 g ai/ha, scale of 0 to 100", "result": 55}, {"measurement": "Plant response rating, Pigweed, Palmer", "setting": "[14]; 31 g ai/ha, scale 0 to 100", "result": 75}, {"measurement": "Pigweed, Palmer plant response rating", "setting": "[14]; 62 g ai/ha", "result": 80}, {"measurement": "Pigweed, Palmer plant response rating", "setting": "[14]; 125 g ai/ha", "result": 85}, {"measurement": "Plant response rating, Speedwell", "setting": "[15]; 16 g ai/ha, scale of 0 to 100", "result": 95}, {"measurement": "Plant response rating, Speedwell", "setting": "[15]; 31 g ai/ha, scale 0 to 100", "result": 100}, {"measurement": "Speedwell plant response rating", "setting": "[15]; 62 g ai/ha", "result": 100}, {"measurement": "Speedwell plant response rating", "setting": "[15]; 125 g ai/ha", "result": 100}, {"measurement": "Plant response rating, Surinam Grass", "setting": "[16]; 16 g ai/ha, scale of 0 to 100", "result": 10}, {"measurement": "Plant response rating, Surinam Grass", "setting": "[16]; 31 g ai/ha, scale 0 to 100", "result": 10}, {"measurement": "Surinam Grass plant response rating", "setting": "[16]; [20]", "result": 20}, {"measurement": "Plant response rating, Mustard, Wild", "setting": "[17]; 16 g ai/ha, scale of 0 to 100", "result": 100}, {"measurement": "Mustard, Wild plant response rating", "setting": "[17]; 62 g ai/ha, scale 0 to 100 (0 no effect, 100 complete control)", "result": 100}, {"measurement": "Plant response rating, Poinsettia, Wild", "setting": "[18]; 16 g ai/ha, scale of 0 to 100", "result": 55}, {"measurement": "Plant response rating, Poinsettia, Wild", "setting": "[18]; 31 g ai/ha, scale 0 to 100", "result": 60}, {"measurement": "Poinsettia, Wild plant response rating", "setting": "[18]; 62 g ai/ha", "result": 80}, {"measurement": "Poinsettia, Wild plant response rating", "setting": "[18]; 125 g ai/ha", "result": 90}, {"measurement": "Plant response rating, Windgrass", "setting": "[19]; 16 g ai/ha, scale of 0 to 100", "result": 10}, {"measurement": "Plant response rating, Windgrass", "setting": "[19]; 31 g ai/ha, scale 0 to 100", "result": 10}, {"measurement": "Windgrass plant response rating", "setting": "[19]; [20]", "result": 35}]}]}
